Experimental data published in patent US20230147053A1, “FUSED N-HETEROCYCLIC COMPOUNDS AND METHODS OF USE THEREOF” (Araxes Pharma LLC, priority 2017, published 2023).

Biological target: T1, KRAS G12C 1-169, his-tagged protein, GDP-loaded (Homo sapiens, UniProt P01116, G12C)
T1 construct: KRAS G12C 1-169, his-tagged protein, GDP-loaded
Assay: Biochemical assay: covalent binding (modification) of KRAS G12C measured by mass spectrometry
Conditions: covalent binding to KRAS G12C after a thirty minute incubation period
Method: Test compounds were prepared as 10 mM stock solutions in DMSO (Fisher cat #BP-231-100). KRAS G12C 1-169, his-tagged protein, GDP-loaded was diluted to 2 μM or 0.5 μM in buffer (20 mM Hepes, 150 mM NaCl, 1 mM MgCl2). Compounds were tested for activity as follows:
Compounds were diluted to 50× final test concentration in DMSO in 96-well storage plates. Compound stock solutions were vortexed before use and observed carefully for any sign of precipitation. Dilutions were as follow: • For 100 μM final compound concentration, compounds were diluted to 5000 μM (5 μL 10 mM compound stock+5 μL DMSO and mixed well by pipetting. • For 30 μM final compound concentration, compounds were diluted to 1500 μM (3 μL 10 mM compound stock+17 μL DMSO) and mixed well by pipetting. • For 10 μM final compound concentration, compounds were diluted to 500 μM (2 μL 10 mM compound stock+38 μL DMSO) and mixed well by pipetting. 49 μL of the stock protein solution was added to each well of a 96-well PCR plate (Fisher cat #1423027). 1 μl of the diluted 50× compounds were added to appropriate wells in the PCR plate using 12-channel pipettor. Reactions were mixed carefully and thoroughly by pipetting up/down with a 200 μL multi-channel pipettor. The plate was sealed well with aluminum plate seal, and stored in drawer at room temperature for 10 minutes, 30 minutes, 2 hours or 24 hours. 5 μL of 2% formic acid (Fisher cat #A117) in de-ionized H2O was then added to each well followed by mixing with a pipette. The plate was then resealed with aluminum seal and stored on dry ice until analyzed as described below.
The above described assays were analyzed by mass spectrometry according to one of the following two procedures:
The MS instrument is set to positive polarity, 2 GHz resolution, and low mass (1700) mode and allowed to equilibrate for 30 minutes. The instrument is then calibrated, switched to acquisition mode and the appropriate method loaded.
After another 30 minute equilibration time, a blank batch (i.e., buffer) is run to ensure equipment is operating properly. The samples are thawed at 37° C. for 10 minutes, briefly centrifuged, and transfer to the bench top. Wells A1 and H12 are spiked with 1 μL 500 μM internal standard peptide, and the plates centrifuged at 2000×g for 5 minutes. The method is then run and masses of each individual well recorded.
The masses (for which integration data is desired) for each well are pasted into the platemap and exported from the analysis. Masses for the internal standards are exported as well. The data at 50 ppm is extracted for the +19 charge state, and identity of well A1 is assigned using the internal standard spike and integrated. Peak data is exported as a TOF list and the above steps are repeated individually, for the +20, 21, 22, 23, 24, and 25 charge states.
The masses and peak intensities of KRAS G12C protein species were measured using a Dionex RSLCnano system (Thermo Scientific) connected to a Q Exactive Plus mass spectrometer (Thermo Scientific).
[…] of sample was each loaded onto a Aeris™ 3.6 μm WIDEPORE C4 200 A, LC Column 50×2.1 mm column maintained at 40° C. at a flow rate of 600 μL/min with […] (0.1% formic acid in acetonitrile). The liquid chromatography conditions were 20% solvent B for 1 minute, 20% to 60% solvent B for 1.5 minutes, 60% to 90% solvent for 0.5 minute, 90% solvent B for 0.2 minute, 90% to 20% solvent B for 0.2 minute, and then equilibrated for 1.6 minute before the following sample injection. The flow rate was maintained at 600 μL/min throughout the sample analysis.
The mass spectrometer was operated in profile mode at a resolution of 17500, 5 microscans, using 50 msec max injection time and an AGC target of 1×10^6, and a full mass range from 800-1850 m/z was recorded. The HCD trapping gas was optimized for maximum sensitivity for intact proteins. […]

Question: With `C=CC(=O)N1CC(c2ccc3cc(-c4cc(O)cc5ccccc45)[nH]c3c2)C1` [Compound 33, 1-(3-(2-(3-hydroxynaphthalen-1-yl)-1H-indol-6-yl)azetidin-1-yl)prop-2-en-1-one] as the molecule, how does the Binding % read?
Answer: ++ (++ indicates binding activity from 5% to 50%)

Question: How did the Binding % turn out when `C=CC(=O)N1CCC(c2ccc3c(c2)CCN(c2c(C)ccc4[nH]ncc24)C3=O)C1` (centres unmarked) [Compound 32, 6-(1-acryloylpyrrolidin-3-yl)-2-(5-methyl-1H-indazol-4-yl)-3,4-dihydroisoquinolin-1(2H)-one] was run?
Answer: + (+ indicates binding activity up to 5%)

Question: With `C=CC(=O)N1CC(c2ccc3[nH]c(-c4cc(O)cc5ccccc45)cc3c2)C1` [Compound 14, 1-(3-(2-(3-hydroxynaphthalen-1-yl)-1H-indol-5-yl)azetidin-1-yl)prop-2-en-1-one] as the molecule, how does the Binding % read?
Answer: +++ (+++ indicates binding activity greater than 50%)

Question: How did the Binding % turn out when `C=CC(=O)N1CC(c2ccc3c(c2)CN(c2cc(O)cc4ccccc24)C3=O)C1` [Compound 8, 5-(1-acryloylazetidin-3-yl)-2-(3-hydroxynaphthalen-1-yl)isoindolin-1-one] was run?
Answer: +++ (+++ indicates binding activity greater than 50%)

Question: How did the Binding % turn out when `C=CC(=O)N1CC(c2ccc3c(=O)n(-c4cc(O)cc5ccccc45)ccc3c2)C1` [Compound 18, 6-(1-acryloylazetidin-3-yl)-2-(3-hydroxynaphthalen-1-yl)isoquinolin-1(2H)-one] was run?
Answer: +++ (+++ indicates binding activity greater than 50%)

Question: How did the Binding % turn out when `C=CC(=O)N1CC(c2ccc3c(c2)CCCN(c2cccc4[nH]ncc24)C3)C1` [Compound 5, 1-(3-(2-(1H-indazol-4-yl)-2,3,4,5-tetrahydro-1H-benzo[c]azepin-7-yl)azetidin-1-yl)prop-2-en-1-one] was run?
Answer: + (+ indicates binding activity up to 5%)

Question: How did the Binding % turn out when `C=CC(=O)N1CC(c2ccc3c(=O)n(-c4c(C)ccc5[nH]ncc45)ccc3c2)C1` [Compound 19, 6-(1-acryloylazetidin-3-yl)-2-(5-methyl-1H-indazol-4-yl)isoquinolin-1(2H)-one] was run?
Answer: + (+ indicates binding activity up to 5%)

Question: How did the Binding % turn out when `C=CC(=O)N1CC(c2ccc3cc(-c4cc(O)cc5ccccc45)ncc3c2)C1` [Compound 26, 1-(3-(3-(3-hydroxynaphthalen-1-yl)isoquinolin-7-yl)azetidin-1-yl)prop-2-en-1-one] was run?
Answer: ++ (++ indicates binding activity from 5% to 50%)

Question: For `C=CC(=O)N1CC(c2ccc3cc(-c4cc(O)cc5ccccc45)n(CC(N)=O)c3c2)C1` [Compound 34, 2-(6-(1-acryloylazetidin-3-yl)-2-(3-hydroxynaphthalen-1-yl)-1H-indol-1-yl)acetamide], which Binding % is on record?
Answer: + (+ indicates binding activity up to 5%)

Question: For `C=CC(=O)N1CC(c2ccc3c(Nc4c(C)ccc5[nH]ncc45)ncnc3c2)C1` [Compound 38, 1-(3-(4-((5-methyl-1H-indazol-4-yl)amino)quinazolin-7-yl)azetidin-1-yl)prop-2-en-1-one], which Binding % is on record?
Answer: + (+ indicates binding activity up to 5%)

Question: Which Binding % does the source give for `C=CC(=O)N1CC(c2ccc3cc(-c4c(C)ccc5[nH]ncc45)[nH]c3c2)C1` [Compound 35, 1-(3-(2-(5-methyl-1H-indazol-4-yl)-1H-indol-6-yl)azetidin-1-yl)prop-2-en-1-one] here?
Answer: + (+ indicates binding activity up to 5%)

Question: For `C=CC(=O)N1CC(c2ccc3cn(-c4cc(O)cc5ccccc45)c(=O)cc3c2)C1` [Compound 22, 6-(1-acryloylazetidin-3-yl)-2-(3-hydroxynaphthalen-1-yl)isoquinolin-3(2H)-one], which Binding % is on record?
Answer: + (+ indicates binding activity up to 5%)

Question: With `C=CC(=O)N1CC(c2ccc3c(c2)cc(-c2cc(O)cc4ccccc24)n3CC(N)=O)C1` [Compound 40, 2-(5-(1-acryloylazetidin-3-yl)-2-(3-hydroxynaphthalen-1-yl)-1H-indol-1-yl)acetamide] as the molecule, how does the Binding % read?
Answer: ++ (++ indicates binding activity from 5% to 50%)

Question: With `C=CC(=O)N1CC(c2ccc3c(c2)NC(=O)N(c2cc(O)cc4ccccc24)C3)C1` [Compound 24, 7-(1-acryloylazetidin-3-yl)-3-(3-hydroxynaphthalen-1-yl)-3,4-dihydroquinazolin-2(1H)-one] as the molecule, how does the Binding % read?
Answer: +++ (+++ indicates binding activity greater than 50%)

Question: With `C=CC(=O)N1CC(NC(=O)c2ccc3c(-c4cc(O)cc5ccccc45)ccnc3c2)C1` [Compound 39, N-(1-acryloylazetidin-3-yl)-4-(3-hydroxynaphthalen-1-yl)quinoline-7-carboxamide] as the molecule, how does the Binding % read?
Answer: ++ (++ indicates binding activity from 5% to 50%)

Question: For `C=CC(=O)N1CC(c2ccc3c(c2)CN(c2c(C)ccc4[nH]ncc24)C3=O)C1` [Compound 9, 5-(1-acryloylazetidin-3-yl)-2-(5-methyl-1H-indazol-4-yl)isoindolin-1-one], which Binding % is on record?
Answer: + (+ indicates binding activity up to 5%)

Question: With `C=CC(=O)N1CC(c2ccc3cn(-c4c(C)ccc5[nH]ncc45)c(=O)cc3c2)C1` [Compound 23, 6-(1-acryloylazetidin-3-yl)-2-(5-methyl-1H-indazol-4-yl)isoquinolin-3(2H)-one] as the molecule, how does the Binding % read?
Answer: + (+ indicates binding activity up to 5%)

Question: Which Binding % does the source give for `C=CC(=O)N1CC(c2ccc3c(c2)NC(=O)N(c2c(C)ccc4[nH]ncc24)C3)C1` [Compound 25, 7-(1-acryloylazetidin-3-yl)-3-(5-methyl-1H-indazol-4-yl)-3,4-dihydroquinazolin-2(1H)-one] here?
Answer: ++ (++ indicates binding activity from 5% to 50%)

Question: Which Binding % does the source give for `C=CC(=O)N1CC(c2ccc3c(c2)C(=O)N(c2cc(O)cc4ccccc24)C3)C1` [Compound 10, 6-(1-acryloylazetidin-3-yl)-2-(3-hydroxynaphthalen-1-yl)isoindolin-1-one] here?
Answer: ++ (++ indicates binding activity from 5% to 50%)

Question: With `C=CC(=O)N1CC(c2ccc3c(Nc4cc(O)cc5ccccc45)ncnc3c2)C1` [Compound 36, 1-(3-(4-((3-hydroxynaphthalen-1-yl)amino)quinazolin-7-yl)azetidin-1-yl)prop-2-en-1-one] as the molecule, how does the Binding % read?
Answer: + (+ indicates binding activity up to 5%)

Question: `C=CC(=O)N1CC(Nc2cccc3c(-c4cc(O)cc5ccccc45)ccnc23)C1` [Compound 37, 1-(3-((4-(3-hydroxynaphthalen-1-yl)quinolin-8-yl)amino)azetidin-1-yl)prop-2-en-1-one] was tested. Which Binding % did it give?
Answer: +++ (+++ indicates binding activity greater than 50%)

Question: `C=CC(=O)N1CC(c2ccc3c(c2)CN(c2cc(O)cc4ccccc24)C3)C1` [Compound 6, 1-(3-(2-(3-hydroxynaphthalen-1-yl)isoindolin-5-yl)azetidin-1-yl)prop-2-en-1-one] was tested. Which Binding % did it give?
Answer: +++ (+++ indicates binding activity greater than 50%)

Question: Which Binding % does the source give for `C=CC(=O)N1CC(c2ccc3c(c2)C(=O)N(c2c(C)ccc4[nH]ncc24)C3)C1` [Compound 11, 6-(1-acryloylazetidin-3-yl)-2-(5-methyl-1H-indazol-4-yl)isoindolin-1-one] here?
Answer: + (+ indicates binding activity up to 5%)
